Measured values as given in patent publication US5556853A, “Epoxysuccinic acid derivatives” (Takeda Chemical Industries, Ltd., priority 1993, dated 1996).
Counter-ions that a name gives are not always drawn.

Assays:
mice = test: Toxicity Study; assay type: in vivo; conditions: intraperitoneally or orally administered at 400 mg/kg
Description: TAN-1756A caused no death in mice when it was intraperitoneally or orally administered at 400 mg/kg.
TAN-1803 monohydrochloride caused no death in mice when it was intraperitoneally or orally administered at 400 mg/kg.

[1] = system: bone resorption as enhanced by PTH (parathyroid hormone) in femurs from female BALB/c mice; test: Determination of Bone Resorption Suppressive Activity (PTH-enhanced, calcium release from cultured femurs); assay type: cell-based; conditions: 168 h; test compound 10 μg/ml, PTH 1 μM, 7 days, mouse femurs
Description: Compounds (I), (XI) and (XXI) or salts thereof excellently suppress bone resorption. Their suppressive action against bone resorption as enhanced by PTH (parathyroid hormone) was determined by the method described below.
Femurs were aseptically isolated from female BALB/c mice at 8-10 weeks of age. After the bone marrow cavity was washed with a Ham F12 medium containing 10% (w/w) thermally inactivated fetal calf serum, 100 unit/ml penicillin G and 100 unit/ml streptomycin (hereinafter referred to as culture broth), each femur was added to 1 ml of the culture broth and precultured for 3 hours at 37° C. in the presence of 5% carbon dioxide and 95% air. Each bone was transferred to 1 ml of the culture broth supplemented with PTH (produced by Peptide Institute, Inc., final concentration 1 μM) and the test compound (final concentration 10 μg/ml) and cultured for 7 more days, after which the total calcium content in the culture broth was determined using Calcium E-Test Wako (produced by Wako Pure Chemical Industries). The bone resorption suppressive activity of the test compound was calculated using the following equation:
Bone resorption suppressive activity (%)=100×(Cp-Cs)/(Cp-Cc)
Cc: Total calcium content in the culture broth containing neither PTH nor test compound
Cp: Total calcium content in the culture broth containing PTH […]

[2] = biological target: T1, human recombinant cathepsin L (Homo sapiens, UniProt P07711); test: Determination of Cathepsin L Inhibitory Activity; assay type: biochemical; conditions: Z-Phe-Arg-7MCA substrate, pH 5.5, 37° C., 20 minutes, read-out: Inhibitory activity potency IC50 Cathepsin L (converted)
T1 construct: made in house; host or cells: mouse myeloma Sp2/0 cells transformed with pTBN-HCLneo (Sp-HCL26), secreted into the culture supernatant
Description: To 75 μl of a reaction mixture containing 1 ng of human recombinant cathepsin L (as produced in Reference Examples 1 through 7 below), 2 μM dithiothreitol (hereinafter referred to as DTT), 1 mM ethylenediaminetetraacetate disodium salt, 0.1M sodium acetate buffer (pH 5.5) and various concentrations of sample, 25 μl of 20 μM benzyloxycarbonyl-L-phenylalanyl-L-arginine-4-methylcoumaryl-7-amide (hereinafter referred to as Z-Phe-Arg-7MCA, produced by Peptide Institute, Inc.) was added to initiate the reaction. After incubation at 37° C. for 20 minutes, 100 μl of a reaction stopper solution containing 100 mM sodium monochloroacetate was added. The amount of liberated 4-methyl-7-aminocoumarin was determined at an excitation wavelength of 365 nm and a fluorescence wavelength of 450 nm, using a fluorophotometer (FCA; produced by Baxter). The sample concentration required to cause 50% inhibition was expressed as the IC50 value, with the fluorescence value obtained from the same reaction in the absence of the sample taken as 100%.

cathepsin B = biological target: T2, cathepsin B (Homo sapiens, UniProt P07858); test: Determination of Cathepsin B Inhibitory Activity; assay type: biochemical; conditions: cathepsin B (Sigma), Z-Phe-Arg-7MCA substrate, pH 5.5, 37° C., 20 minutes; read-out: Inhibitory activity potency IC50 Cathepsin B (converted)
T2 construct: purchased Sigma
Description: To 75 μl of a reaction mixture containing 30 ng of cathepsin B (produced by Sigma), 2 μM DTT, 1 mM ethylenediaminetetraacetate disodium salt, 0.1M sodium acetate buffer (pH 5.5) and various concentrations of sample, 25 μl of 20 μM Z-Phe-Arg-7MCA was added to initiate the reaction. After reaction mixture incubation at 37° C. for 20 minutes, 100 μl of a reaction stopper solution containing 100 mM sodium monochloroacetate was added. The amount of liberated 4-methyl-7-aminocoumarin was determined at an excitation wavelength of 365 nm and a fluorescence wavelength of 450 nm, using a fluorophotometer. The sample concentration required to cause 50% inhibition was expressed as the IC50 value, with the fluorescence value obtained from the same reaction in the absence of the sample taken as 100%.

T1 sequence (P07711 114-333): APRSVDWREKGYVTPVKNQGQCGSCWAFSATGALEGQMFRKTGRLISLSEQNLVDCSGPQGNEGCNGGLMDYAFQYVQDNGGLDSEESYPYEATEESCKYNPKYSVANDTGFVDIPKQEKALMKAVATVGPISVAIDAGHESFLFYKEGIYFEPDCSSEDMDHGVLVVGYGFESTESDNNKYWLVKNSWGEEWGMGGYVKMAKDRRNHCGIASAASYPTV

SMILES	death in mice (mice)	activity at 10 µg/mL [1] [%]	IC50 [2] [nM]	IC50 (cathepsin B) [nM]
NCCCCNC(=O)[C@H](Cc1ccccc1)NC(=O)[C@H]1O[C@@H]1C(=O)O [Compound 1, N-{N-[(2S,3S)-3-trans-carboxyoxirane-2-carbonyl]-L-phenylalanyl}-1,4-diaminobutane]	no death	150	–	–
CC(C)C[C@H](NC(=O)[C@H]1O[C@@H]1C(=O)O)C(=O)N(CCCN)CCCCN [Compound 92, N-{N-[(2S,3S)-3-trans-carboxyoxirane-2-carbonyl]-L-leucyl}-N-(3-aminopropyl)-1,4-diaminobutane]	no death	149	–	–
O=C(NCCCCNC(=O)[C@H](Cc1ccccc1F)NC(=O)[C@H]1O[C@@H]1C(=O)O)OCc1ccccc1 [Compound 37]	–	–	1.99	27.9
NCCCCCCCCNC(=O)[C@H](Cc1ccccc1)NC(=O)[C@H]1O[C@@H]1C(=O)O [Compound 23, N-(N-[(2S,3S)-3-trans-carboxyoxirane-2-carbonyl]-L-phenylalanyl}-1,8-diaminooctane]	–	–	4.93	59.2
O=C(O)[C@H]1O[C@@H]1C(=O)N[C@@H](Cc1ccc2ccccc2c1)C(=O)N1CCOCC1 [Compound 82, N-{N-[(2S,3S)-3-trans-carboxyoxirane-2-carbonyl]-3-(2-naphthyl)-L-alanyl}morpholine monosodium salt]	–	–	5.02	85.3
